Test results: ChEMBL document CHEMBL2029339, “Acylthiourea, acylurea, and acylguanidine derivatives with potent hedgehog inhibiting activity” (J Med Chem, 2012)
Activity calls are given as the source filed them. The rule behind the calls is not given here.

What was measured:
C3H 10T1/2 [1] = experiment: Inhibition of SAG-induced differentiation of mouse mesenchymal pluripotent C3H10T1/2 cells to alkaline phosphatase positive oeseoblasts after 6 days; settings: C3H 10T1/2, 6 days
[2] = target: Smoothened (Mus musculus) (UniProt P56726); experiment: Inhibition of Smo-mediated Hh signaling in mouse Shh-light2 cells at 3 uM by luciferase reporter gene assay; settings: Shh Light II
Smoothened (Mus musculus), sequence (P56726 whole entry, looked up): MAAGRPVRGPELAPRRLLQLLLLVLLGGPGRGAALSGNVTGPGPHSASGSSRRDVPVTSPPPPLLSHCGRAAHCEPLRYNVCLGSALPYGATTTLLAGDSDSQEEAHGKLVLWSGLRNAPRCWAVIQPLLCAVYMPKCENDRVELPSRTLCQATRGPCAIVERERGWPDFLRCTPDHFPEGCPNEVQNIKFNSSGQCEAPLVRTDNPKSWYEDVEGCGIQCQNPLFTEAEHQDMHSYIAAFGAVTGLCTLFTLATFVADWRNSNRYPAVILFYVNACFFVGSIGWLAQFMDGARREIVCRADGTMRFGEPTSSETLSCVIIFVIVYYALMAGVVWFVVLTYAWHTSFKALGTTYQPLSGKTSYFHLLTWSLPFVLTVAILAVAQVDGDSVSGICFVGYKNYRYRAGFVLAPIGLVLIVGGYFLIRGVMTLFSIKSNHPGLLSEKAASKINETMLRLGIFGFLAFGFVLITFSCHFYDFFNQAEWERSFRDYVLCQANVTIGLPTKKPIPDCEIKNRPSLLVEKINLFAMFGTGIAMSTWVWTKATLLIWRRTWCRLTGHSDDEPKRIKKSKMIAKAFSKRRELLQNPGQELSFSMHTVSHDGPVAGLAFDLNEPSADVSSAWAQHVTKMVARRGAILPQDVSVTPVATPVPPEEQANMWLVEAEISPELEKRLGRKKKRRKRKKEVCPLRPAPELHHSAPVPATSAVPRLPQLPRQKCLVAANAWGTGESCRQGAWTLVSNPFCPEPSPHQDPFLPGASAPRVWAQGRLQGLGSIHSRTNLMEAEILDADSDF

C3H 10T1/2 [3] = experiment: Inhibition of SAG-induced differentiation of mouse mesenchymal pluripotent C3H10T1/2 cells to alkaline phosphatase positive oeseoblasts at 10 uM after 6 days; settings: C3H 10T1/2, 6 days
[4] = target: Smoothened (Mus musculus) (UniProt P56726); experiment: Inhibition of Smo-mediated Hh signaling in mouse Shh-light2 cells at 0.3 uM by luciferase reporter gene assay; settings: Shh Light II

| Structure (SMILES) | IC50 (C3H 10T1/2 [1]) [µM] | inhibition [2] | inhibition at 10 µM (C3H 10T1/2 [3]) [%] | inhibition [4] [%] |
| --- | --- | --- | --- | --- |
| COc1ccc(C(=O)Nc2cccc(NC(=S)NC(=O)c3cc(OC)c(OC)c(OC)c3)c2)cc1 | 1.6 | 93% | 85 | – |
| COc1cc(C(=O)NC(=S)Nc2cccc(-n3cnc4ccccc43)c2)cc(OC)c1OC | – | 84% | 60 | – |
| COc1ccc(C(=O)Nc2cccc(NC(=O)NC(=O)c3cc(OC)c(OC)c(OC)c3)c2)cc1 | – | 103% | 99 | 40 |
| COc1cc(C(=O)NC(=S)Nc2cccc(NC(=O)C3CCCCC3)c2)cc(OC)c1OC | – | 14% | 26 | – |
| COc1cc(C(=O)NC(=S)Nc2cccc(NC(=O)c3cccs3)c2)cc(OC)c1OC | – | 13% | 60 | – |
| COc1ccc(NC(=S)NC(=O)c2cc(OC)c(OC)c(OC)c2)cc1NC(=O)c1ccccc1 | – | 33% | 8 | 1 |
| COc1cc(C(=O)NC(=S)Nc2cccc(NC(=O)C(C)C)c2)cc(OC)c1OC | – | 6% | 6 | – |
| COc1cc(C(=O)NC(=O)Nc2cccc(NC(=O)c3ccc(-c4ccccc4)cc3)c2C)cc(OC)c1OC | – | 99% | 104 | 26 |
| COc1cccc(C(=O)Nc2cccc(NC(=S)NC(=O)c3cc(OC)c(OC)c(OC)c3)c2)c1 | 2 | 99% | 89 | – |
| COc1cc(C(=O)NC(=N)Nc2ccc(C)c(NC(=O)c3ccccc3)c2)cc(OC)c1OC | 0.18 | – | – | 88 |
| COc1cc(C(=O)NC(=S)Nc2cccc(NC(=O)Nc3ccccc3)c2)cc(OC)c1OC | – | 78% | 104 | – |
| COc1cc(C(=O)NC(=S)Nc2ccc(C)c(NC(=O)c3ccccc3)c2)cc(OC)c1OC | 0.9 | 100% | 99 | 60 |
| O=C(NC(=S)Nc1cccc(NC(=O)c2ccccc2)c1)c1ccc2c(c1)OCCO2 | – | inactive | – | – |
| COc1cc(C(=O)NC(=S)Nc2cccc(NC(=O)c3cccc4ccccc34)c2)cc(OC)c1OC | – | 64% | 63 | – |
| COc1cc(C(=O)NC(=S)Nc2ccc(Cl)c(C(=O)Nc3ccc(Cl)cc3)c2)cc(OC)c1OC | – | 98% | 96 | 7 |
| COc1cc(C(=O)NC(=S)Nc2cccc(NC(=O)c3ccncc3)c2)cc(OC)c1OC | – | 67% | 82 | – |
| CCOc1c(OC)cc(C(=O)NC(=S)Nc2cccc(NC(=O)c3ccccc3)c2)cc1OC | 0.6 | 99% | – | – |
| COc1cc(C(=O)NC(=S)Nc2cccc(NC(=O)Nc3ccc(-c4ccccc4)cc3)c2)cc(OC)c1OC | – | 71% | 91 | – |
| COc1cc(C(=O)NC(=O)Nc2cccc(NC(=O)c3ccc(Cl)cc3)c2)cc(OC)c1OC | – | 96% | 95 | 6 |
| COc1cc(C(=O)NC(=S)Nc2cccc(NC(=O)c3ccccc3)c2)cc2c1OCO2 | 1.1 | 92% | – | – |
| COc1cc(C(=O)NC(=S)Nc2cccc(NC(=O)c3ccc4ccccc4c3)c2)cc(OC)c1OC | – | 24% | 59 | – |
| COc1cc(C(=O)NC(=S)Nc2ccc(Cl)c(C(=O)Nc3ccc(N(C)C)cc3)c2)cc(OC)c1OC | – | 99% | 98 | 4 |
| COc1cc(C(=O)NC(=O)Nc2cccc(NC(=O)c3ccccc3)c2)cc2c1OCO2 | – | 2% | 32 | 1 |

| Structure (SMILES) | IC50 (C3H 10T1/2 [1]) [µM] | inhibition [2] | inhibition at 10 µM (C3H 10T1/2 [3]) [%] | inhibition [4] [%] |
| --- | --- | --- | --- | --- |
| COc1cc(C(=O)NC(=S)Nc2cccc(NC(=O)c3ccccc3Cl)c2)cc(OC)c1OC | 2.5 | 66% | 80 | – |
| COc1cc(C(=O)NC(=S)Nc2ccc(F)c(NC(=O)c3ccccc3)c2)cc(OC)c1OC | – | 98% | 96 | 21 |
| COc1cc(C(=O)NC(=S)Nc2cccc(NC(=O)c3ccco3)c2)cc(OC)c1OC | – | 53% | 67 | – |
| COc1cc(OC)cc(C(=O)NC(=S)Nc2cccc(NC(=O)c3ccccc3)c2)c1 | 1.9 | 84% | – | – |
| COc1ccc(NC(=O)c2cc(NC(=S)NC(=O)c3cc(OC)c(OC)c(OC)c3)ccc2Cl)cc1 | – | 100% | 88 | 10 |
| CCOc1cc(C(=O)NC(=S)Nc2cccc(NC(=O)c3ccccc3)c2)cc(OC)c1OCC | 0.8 | 100% | – | – |
| COc1cc(C(=O)NC(=S)Nc2cccc(NC(=O)c3ccccc3)c2C)cc(OC)c1OC | – | 54% | 44 | 2 |
| COc1cc(C(=O)NC(=S)Nc2ccc(C)c(NC(=O)c3ccc(Oc4ccccc4)cc3)c2)cc(OC)c1OC | 0.5 | 97% | 99 | 59 |
| COc1cc(C(=O)NC(=S)Nc2cccc(NC(=O)c3ccc(N4CCOCC4)cc3)c2)cc(OC)c1OC | – | 90% | 55 | – |
| COc1cc(C(=O)NC(=S)Nc2cccc(NC(=O)c3cc(OC)c(OC)c(OC)c3)c2)cc(OC)c1OC | – | 37% | 74 | – |
| COc1ccc(C(=O)NC(=S)Nc2cccc(NC(=O)c3ccccc3)c2)cc1OC | – | 71% | 45 | – |
| COc1cc(C(=O)NC(=O)Nc2cccc(NC(=O)C(C)C)c2)cc(OC)c1OC | – | 62% | 99 | 4 |
| COc1cc(C(=O)NC(=S)Nc2cc(NC(=O)c3ccccc3)ccc2F)cc(OC)c1OC | – | 92% | 97 | 4 |
| COc1ccc(C(=O)NC(=S)Nc2cccc(NC(=O)c3ccccc3)c2)c(OC)c1 | 4.1 | 34% | – | – |
| CCOc1cc(C(=O)NC(=O)Nc2cccc(NC(=O)c3ccccc3)c2)cc(OCC)c1OCC | – | 24% | 45 | 13 |
| COc1cc(C(=O)NC(=S)Nc2cccc(NC(=O)c3ccc(Cl)cc3)c2)cc(OC)c1OC | 0.8 | 99% | 96 | – |
| COc1ccccc1C(=O)Nc1cccc(NC(=S)NC(=O)c2cc(OC)c(OC)c(OC)c2)c1 | 2 | 49% | 99 | – |
| CCOc1cc(C(=O)NC(=S)Nc2cccc(NC(=O)c3ccccc3)c2)cc(OCC)c1OCC | 0.8 | 100% | – | – |
| COc1cc(C(=O)NC(=S)Nc2ccc(C)c(NC(=O)c3cccc(-c4ccccc4)c3)c2)cc(OC)c1OC | 0.6 | 100% | 97 | 72 |
| COc1cc(C(=O)NC(=S)Nc2cccc(NC(=O)c3ccc(-c4ccccc4)cc3)c2C)cc(OC)c1OC | – | 48% | 7 | 9 |
| COc1cc(C(=O)NC(=O)Nc2cccc(NC(=O)c3ccc4ccccc4c3)c2)cc(OC)c1OC | – | 3% | 4 | 1 |
| COc1cc(C(=O)NC(=S)Nc2cccc(-n3ccc4ccccc43)c2)cc(OC)c1OC | – | 69% | 92 | – |
